# Laboratory results from ChEMBL document CHEMBL4330059, “Discovery of N1-(4-((7-(3-(4-ethylpiperazin-1-yl)propoxy)-6-methoxyquinolin-4-yl)oxy)-3,5-difluorophenyl)-N3-(2-(2,6-difluorophenyl)-4-oxothiazolidin-3-yl)urea as a multi-tyrosine kinase inhibitor for drug-sensitive and drug-resistant cancers treatment” (Eur J Med Chem, 2019).
# Active and inactive are the calls of the source. No cut-off for these calls is given here.
# Experiments:
# [1] = tested on: HT-29; assay: Antiproliferative activity against human HT-29 cells after 72 hrs by MTT assay; assay type: functional, cell-based; details: HT-29, 72 h
# [2] = tested on: A549; assay: Antiproliferative activity against human A549 cells after 72 hrs by MTT assay; assay type: functional, cell-based; details: A549, 72 h
# [3] = tested on: MDA-MB-231; assay: Antiproliferative activity against human MDA-MB-231 cells after 72 hrs by MTT assay; assay type: functional, cell-based; details: MDA-MB-231, 72 h
# [4] = Selectivity index, ratio of IC50 for human FHC cells to IC50 for human HT-29 cells; assay type: toxicity; details: FHC cells and HT-29 cells, read-out: Ratio IC50
# [5] = tested on: MCF7; assay: Antiproliferative activity against human MCF7 cells after 72 hrs by MTT assay; assay type: functional, cell-based; details: MCF7, 72 h
# [6] = tested on: A549/CDDP; assay: Antiproliferative activity against human A549/CDDP cells after 72 hrs by MTT assay; assay type: functional, cell-based
# [7] = tested on: FHC; assay: Cytotoxicity against human FHC cells after 72 hrs by MTT assay; assay type: cell-based
# [8] = Antiproliferative activity against human MCF7/DX cells after 72 hrs by MTT assay; assay type: functional, cell-based
# [9] = tested on: HT-29; assay: Induction of apoptosis in human HT-29 cells assessed as early apoptotic cells at 5 ug/mL after 72 hrs by Annexin V-FITC/propidium iodide staining-based flow cytometric analysis (reference value: 0%); assay type: functional
# [10] = tested on: HT-29; assay: Cytotoxicity against human HT-29 cells assessed as increase in dead cells at 10 ug/mL up to 36 hrs by yoyo-1 dye-based fluorescence assay; assay type: functional, cell-based
# [11] = tested on: HT-29; assay: Antiproliferative activity against human HT-29 cells at 10 ug/ml after 72 hrs by IncuCyte live-cell imaging assay; assay type: functional, cell-based
# [12] = tested on: HT-29; assay: Antiproliferative activity against human HT-29 cells at 3.33 ug/ml after 36 to 72 hrs by phase contrast microscopy; assay type: functional, cell-based
# [13] = tested on: HT-29; assay: Induction of apoptosis in human HT-29 cells assessed as late apoptotic cells at 5 ug/mL after 72 hrs by Annexin V-FITC/propidium iodide staining-based flow cytometric analysis (reference value: 0.1%); assay type: functional
# [14] = tested on: HT-29; assay: Antimigratory activity against human HT-29 cells at 3.33 ug/mL after 48 to 72 hrs by wound healing assay; assay type: functional, cell-based
SMILES,IC50 [1],IC50 [2],IC50 [3],also measured
COc1cc2c(Oc3c(F)cc(NC(=O)NN4C(=O)CSC4c4c(F)cccc4F)cc3F)ccnc2cc1OCCN1CCC(N2CCCCC2)CC1 (stereo not given),490 nM,2380 nM,–,–
COc1cc2c(Oc3ccc(NC(=O)NN4C(=O)CSC4c4c(F)cccc4F)cc3Cl)ccnc2cc1OCCCN1CCCC1 (stereo not given),480 nM,880 nM,–,–
COc1cc2c(Oc3c(F)cc(NC(=S)NN4C(=O)CSC4c4c(F)cccc4F)cc3F)ccnc2cc1OCCCN1CCCC1 (stereo not given),410 nM,690 nM,8120 nM,–
COc1cc2c(Oc3c(F)cc(NC(=O)NN4C(=O)CCSC4c4c(F)cccc4F)cc3F)ccnc2cc1OCCCN1CCc2sccc2C1 (stereo not given),1320 nM,> 20000 nM,–,–
CCN1CCN(CCCCOc2cc3nccc(Oc4c(F)cc(NC(=O)NN5C(=O)CSC5c5c(F)cccc5F)cc4F)c3cc2OC)CC1 (stereo not given),830 nM,1390 nM,–,–
COc1cc2nccc(Oc3ccc(NC(=O)C4(C(=O)Nc5ccc(F)cc5)CC4)cc3)c2cc1OC [CABOZANTINIB],11500 nM,9520 nM,13400 nM,Activity [9]: 78.4%; IC50 [5]: 8570 nM; IC50 [6]: 19600 nM; IC50 [7]: 4400 nM; Activity [10]: Active; Activity [11]: Active; Activity [12]: Active; IC50 [8]: > 50000 nM; Activity [13]: 10.9%; Activity [14]: Active
COc1cc2c(Oc3c(F)cc(NC(=O)NN4C(=O)CSC4c4c(F)cccc4F)cc3F)ccnc2cc1OCCCN1CCc2sccc2C1 (stereo not given),1410 nM,> 20000 nM,–,–
COc1cc2c(Oc3c(F)cc(NC(=O)NN4C(=O)CSC4c4c(F)cccc4F)cc3F)ccnc2cc1OCCCN1C[C@H]2CCCC[C@H]2C1 (stereo not given in full),470 nM,1930 nM,–,–
COc1cc2c(Oc3c(F)cc(NC(=O)NN4C(=O)C(C)SC4c4c(F)cccc4F)cc3F)ccnc2cc1OCCCN1CCCC1 (stereo not given),670 nM,830 nM,–,–
COc1cc2c(Oc3ccc(NC(=O)NN4C(=O)CSC4c4c(F)cccc4F)c4ccccc34)ccnc2cc1OCCCN1CCCC1 (stereo not given),1860 nM,2360 nM,–,–
COc1cc2c(Oc3ccc(NC(=O)NN4C(=O)CSC4c4c(F)cccc4F)c(Cl)c3)ccnc2cc1OCCCN1CCCC1 (stereo not given),630 nM,960 nM,–,–
COc1cc2c(Oc3c(F)cc(NC(=O)NN4C(=O)C(C)(C)SC4c4c(F)cccc4F)cc3F)ccnc2cc1OCCCN1CCCC1 (stereo not given),950 nM,1450 nM,–,–
COc1cc2c(Oc3c(F)cc(NC(=O)NN4C(=O)CCSC4c4c(F)cccc4F)cc3F)ccnc2cc1OCCCN1C[C@H]2CCCC[C@H]2C1 (stereo not given in full),790 nM,3610 nM,–,–

# The next lines start with results.
IC50 [1],IC50 [2],IC50 [3],SMILES,also measured
410 nM,1630 nM,4350 nM,COc1cc2c(Oc3c(F)cc(NC(=O)NN4C(=O)CCSC4c4c(F)cccc4F)cc3F)ccnc2cc1OCCCN1CCC(C)CC1 (stereo not given),–
230 nM,560 nM,8350 nM,COc1cc2c(Oc3c(F)cc(NC(=O)NN4C(=O)CSC4c4c(F)cccc4F)cc3F)ccnc2cc1OCCCN1CCCC1 (stereo not given),–
280 nM,380 nM,5380 nM,COc1cc2c(Oc3c(F)cc(NC(=O)NN4C(=O)CSC4c4c(F)cccc4F)cc3F)ccnc2cc1OCCCN1CCC(N2CCCCC2)CC1 (stereo not given),–
350 nM,690 nM,9040 nM,COc1cc2c(Oc3ccc(NC(=O)NN4C(=O)CSC4c4c(F)cccc4F)cc3F)ccnc2cc1OCCCN1CCCC1 (stereo not given),–
350 nM,1520 nM,5910 nM,CCN1CCN(CCOc2cc3nccc(Oc4c(F)cc(NC(=O)NN5C(=O)CSC5c5c(F)cccc5F)cc4F)c3cc2OC)CC1 (stereo not given),–
150 nM,510 nM,4360 nM,COc1cc2c(Oc3c(F)cc(NC(=O)NN4C(=O)CSC4c4c(F)cccc4F)cc3F)ccnc2cc1OCCCN1CCN(C)CC1 (stereo not given),–
91 nM,450 nM,3790 nM,CCN(CC)CCCOc1cc2nccc(Oc3c(F)cc(NC(=O)NN4C(=O)CSC4c4c(F)cccc4F)cc3F)c2cc1OC (stereo not given),selectivity ratio [4]: 5.9; IC50 [5]: 1600 nM; IC50 [6]: 540 nM; IC50 [7]: 540 nM; IC50 [8]: 3400 nM
220 nM,970 nM,3830 nM,COc1cc2c(Oc3c(F)cc(NC(=O)NN4C(=O)CSC4c4c(F)cccc4F)cc3F)ccnc2cc1OCCCN1CCC(C)CC1 (stereo not given),–
270 nM,400 nM,9650 nM,COc1cc2c(Oc3c(F)cc(NC(=O)NN4C(=O)CCSC4c4c(F)cccc4F)cc3F)ccnc2cc1OCCCN1CCCC1 (stereo not given),–
